Reference: patent US9433663B2, “Mobilization of hematopoietic stem cells” (Children's Hospital Medical Center, priority 2008, dated 2016)

Tests used:
Fancc−/− mice = experiment: Example 10 preparative regimen for BM transplantation in Fancc−/− mice; type: in vivo; conditions: preconditioning before BM transplantation
Description: Four preparative regimens before BM transplantation on Fancc−/− mice are used to evaluate the capacity of CASIN as a preconditioning agent: (1) Control group; (2) CY group: a single dose of 40 mg/kg CY intraperitoneally; (3) CASIN group: 2.5 mg/Kg; (4) combination of CASIN and CY: one injection of CASIN is given in combination with reduced doses of CY.
Fancc−/− mice are preconditioned with each of these four regimens, and 4×10^7 BM cells from congenic strain mice are transplanted into preconditioned mice by tail vein injection. Mice that underwent transplantation are bled every four weeks to monitor the chimerism of donor-derived cells in PB. And at 3 m, the mice are sacrificed to evaluate the engraftment of donor-derived cells in BM.

[1] = tested on: human CD45^+ hematopoietic cells; experiment: mobilization of human CD45+ cells in NOD/SCID-hCB model; type: in vivo, NOD/SCID mice xenografted with human CD34^+ hCB cells; conditions: intravenous injection, by 20 min post administration
Description: To begin to study potential utility of CASIN in human hematopoietic stem cell mobilization, a series of cellular assays were carried out to determine the effects on human CD34^+ umbilical cord blood cells (HCBs). […] The effects of CASIN on human hematopoietic cell mobilization was therefore tested using a well established preclinical in vivo model (NOD/SCID-Hcb) of human hematopoietic function, where fresh CD34^+ hCB cells were transplanted into sub-lethally irradiated NOD/SCIDs by intrafemoral injection, and repopulated and maintained human hematopoietic reconstitution in the bone marrow of NOD/SCID recipient mice (FIG. 9b, FIG. 11) (Larochelle, A. et al. Nat Med 2, 1329-1337 (1996); Bhatia, M., et al. Proc Natl Acad Sci USA 94, 5320-5325 (1997)). Intravenous injections of CASIN were applied when human cells were well engrafted in the NOD/SCID recipients.
C57BL/6, NOD/SCID, NOD/SCID-SGM3 and NOD/SCIDγC−/− (NOG) were in house bred in the animal barrier facility of Cincinnati Children's Hospital Medical Center (CCHMC) and used at the age of 6-8 weeks old. Cultured N-RasMA93 cells were injected into NOD/SCIDγC−/− mice by tail vein. Freshly thawed CD34^+ hCB cells were transplanted into NOD/SCID mice by intrafemoral injection.

RhoA = molecular target: T1, RhoA (Mus musculus, UniProt Q9QUI0); experiment: Rho GTPase effector pull-down in murine LDBM cells, RhoA; type: cell-based; conditions: parallel pull-down assay
T1 construct: endogenous in cells; host or cells: murine LDBM cells
T1 sequence (Q9QUI0 whole entry): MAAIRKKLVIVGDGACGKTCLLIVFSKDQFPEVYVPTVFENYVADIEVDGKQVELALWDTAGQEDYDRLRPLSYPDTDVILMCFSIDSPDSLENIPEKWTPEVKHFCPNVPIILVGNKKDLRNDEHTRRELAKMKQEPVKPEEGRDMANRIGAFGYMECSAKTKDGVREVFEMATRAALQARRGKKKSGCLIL
Description: To analyze the effects of CASIN on the formation of active GTP-bound Cdc42, RhoA, and Rac1, effector pulldown assays were carried out as described previously. Cdc42GAP^−/− MEF, LDBM, CD34^+ hCB cells were treated with CASIN at doses of 5-20 μM in parallel with vehicle control for 2 hrs after overnight starvation, and stimulated with cytokines subsequently. And then cells were lysed in a buffer containing 20 mM Tris-HCL (pH 7.6), 100 mM NaCl, 1% Triton X-100, 10 mM MgCl2, 2 mM NaF, and Protease inhibitor cocktail (Roche Diagnostics). Lysates were incubated with GST-P21-binding domain of PAK1 for RAC1-GTP and Cdc42-GTP, and GST-RBD domain of Rhotekin for RhoA-GTP respectively. Both bound- and unbound-form of Rho GTPases were probed by immunoblotting with antibodies specific for Rac1 (BD biosciences), Cdc42 (BD biosciences), and RhoA (cell signaling).

Swiss 3T3 fibroblasts = experiment: actin cytoskeleton rearrangement in Swiss 3T3 fibroblasts; type: cell-based, murine; conditions: serum-starved Swiss 3T3 cells, in the presence of CASIN
Description: To investigate the Cdc42-dependent cytoskeleton rearrangement, Swiss 3T3 fibroblasts were used since it was abundantly elaborated in Swiss 3T3 fibroblats that bradykinin induces actin filopodia formation through activating Cdc42, whereas PDGF activates Rac1 and induces Rac-mediated membrane lamellipoidia, and LPA responsible for RhoA activation, eliciting RhoA-medicated formation of actin stress fibers and focal adhesion assembly (Ridley, A. J. et al. Cell 70, 401-410 (1992); Ridley, A. J. et al. Cell 70, 389-399 (1992); Kozma, R. et al. Mol Cell Biol 15, 1942-1952 (1995)).
[…] cells were seeded in Dulbecco's modified Eagle's medium (DMEM) supplemented with 10% calf serum on glass coverslips at a density of 10^5 cells per well in 8-well chambers. 24 hrs after cell seeding, cells were starved in serum-free DMEM for 24 h in the presence or absence of 5 μM or 10 μM CASIN for the last 2 hrs. cells then were stimulated with 5 ng/ml PDGF, 40 ng/ml LPA, or 100 ng/ml bradykinin, then fixed for immunofluorescence analysis. Immunostaining of F-actin with Rhodamine conjugated-phalloidin (Invitrogen) was carried out as described previously (Shutes, A., et al. J Biol Chem 282, 35666-35678 (2007)).

Cdc42WT/WT MEF cells = experiment: Example 7 adhesion, migration, actin polymerization in MEF cells; type: cell-based, mouse; conditions: in vitro
Description: To further verify the specificity of CASIN on Cdc42 activity inhibition, adhesion, migration, Actin polymerization is evaluated in both Cdc42−/− and Cdc42WT/WT MEF cells under the following five groups: (1) Cdc42WT/WT cells without treatment; (2) Cdc42−/− cells without treatment; (3) Cdc42WT/WT cells treated with CASIN; (4) Cdc42WT/WT cells treated with control medium; (5) Cdc42−/− cells treated with CASIN, in order to verify that CASIN function through inhibiting Cdc42. similarly, activities of the down stream effectors of Cdc42, Rac, and Rho under the five groups are monitored by western blot as above.

Compound: OCCNC1CCCc2c1[nH]c1ccc(-c3ccccc3)cc21 (stereo not shown) [CASIN]
- repopulation and engraftment of donor derived cells in PB and BM of Fancc−/− recipient mice (Fancc−/− mice): reasonable repopulation and engraftment of donor derived cells
- human CD45^+ hematopoietic cells mobilized to the peripheral blood [1]: significant amount of human CD45^+ hematopoietic cells mobilized to the peripheral blood
- RhoA activity (RhoA): no effects
- LPA-induced actin stress fiber formation (Swiss 3T3 fibroblasts): still induced their respective changes in actin reorganization
- PDGF-induced lamellipodia formation (Swiss 3T3 fibroblasts): still induced their respective changes in actin reorganization
- bradykinin-induced filopodia formation (Swiss 3T3 fibroblasts): suppressed completely
- MEF cells' ability of adhesion, migration and actin polymerization (Cdc42WT/WT MEF cells): impairs
